Assay results as given in patent US9598431B1, “Compounds useful for inhibiting ROR-gamma-t” (Eli Lilly and Company, priority 2015, dated 2017).
Like-named read-outs stand apart in the source and are kept apart here.

Columns and labels:
IL-17 secretion in PBMC = assay: PBMC IL-17 secretion ELISA; assay type: cell-based; conditions: anti-CD3/anti-CD28/IL-23 stimulated human PBMC, mean ± SEM, read-out: hPBMC IL-17 ELISA
Method: Following the incubation period the plates are spun at 200×g for five minutes. Supernatants are diluted 1:1 with equal volume 1% BSA/PBS and tested for IL-17 with a human IL-17 ELISA kit from R&D system (catalog #D317E) according to the protocol provided with the kit with one exception—the colorimetric substrate OPD (o-phenylenediamine dihydrochloride, Sigma Cat #P6912) is used instead of the substrate supplied in the kit. Absorbance at 492 nm is measured with the Envision multi-label plate reader. A492 values are converted to concentration of IL-17 based on the IL-17 standard curve as shown below:
pg/mL IL-17=EC50*[[(Top−Bottom)/(A492−Bottom)]−1](1/−Hill). IC50's for inhibition of IL-17 secretion is calculated based on converted values using a standard 4-parameter fit with maximum inhibition determined from the average values of wells with no added stimulants nor compounds and minimum inhibition from the average values of wells with stimulants alone and no added compound.

[1] = test system: GPI induced arthritis in DBA/1 mice; assay: Glucose-6-phosphate isomerase (GPI) induced arthritis model; assay type: in vivo, mouse; conditions: male DBA/1 mice, 1000 mg/Kg orally once daily
Method: The GPI induced arthritis model is adapted from K. Iwanami et al Arthritis Rheumatism 58, 754-763, 2008 and D. Schubert et al. J Immunology 172, 4503-4509, 2004. Mice (8-9 week old male DBA/1 mice) (Harlan) are randomly assigned into treatment groups based on body weights collected on the day of immunization (day 0). On the day of immunization (day 0), a 1:1 (v:v) mixture of recombinant human GPI (diluted to 4 mg/mL in PBS, Gibco) and complete Freund's adjuvant (CFA, Sigma) is mixed on a high speed homogenizer (Omni) for 40 minutes in a cold room. A final concentration of 2 mg/mL GPI is achieved in the emulsion. Mice are injected at the base of the tail (2 sites of injection, subcutaneously, 100 μL each site) with the GPI emulsion. Test compounds are dosed orally starting on the same day as immunization (day 0). Starting on day 0, each paw is scored for severity of joint swelling based on a 0 to 3 scoring system (See K. Iwanami et al Arthritis Rheumatism 58, 754-763, 2008. The clinical score represents the total score of all 4 paws (maximum score=12). Clinical scores are assessed on days 0, 2, 4, 7, 8, 9, 10, 11, 12, 14, 16, 18, and 21.
The AUC is calculated by a trapezoid method for clinical score over time from the day of immunization (day 0) to day 21. Test p-values were derived from Student's t-test.

SMILES | IC50 (IL-17 secretion in PBMC; 48 hours) [nM] | IC50 (IL-17 secretion in PBMC; Homo sapiens, PBMC, 48 h) [nM] | other results
CCS(=O)(=O)c1ccc(CNC(=O)c2cc3c(s2)C2(CCN(C(C)c4cnc(C(F)(F)F)nc4)CC2)O[C@H](C)C3)nc1 (single isomer, unassigned; isomer 1) [Example 4, (5R′)—N-{[5-(Ethylsulfonyl)pyridine-2-yl]methyl}-5′-methyl-1-{1-[2-(trifluoromethyl)pyrimidin-5-yl]ethyl}-4′,5′-dihydrospiro[piperidine-4,7′thieno[2,3-C]pyran]-2′-carboxamide isomer 1] | 106 |  | 
CCS(=O)(=O)c1ccc(CNC(=O)c2cc3c(s2)C2(CCN(C(C)c4cnc(C(F)(F)F)nc4)CC2)O[C@H](C)C3)nc1 (single isomer, unassigned; isomer 2) [Example 5, (5R′)—N-{[5-(Ethylsulfonyl)pyridine-2-yl]methyl}-5′-methyl-1-{1-[2-(trifluoromethyl)pyrimidin-5-yl]ethyl}-4′,5′-dihydrospiro[piperidine-4,7′thieno[2,3-C]pyran]-2′-carboxamide isomer 2] | 30.5 ± 29.3 |  | 
CCS(=O)(=O)c1ccc(CNC(=O)c2cc3c(s2)C2(CCN(C(C)c4cnc(C(F)(F)F)nc4)CC2)OC(C)C3)nc1 (centres unmarked) [Example 1, N-{[5-(Ethylsulfonyl)pyridine-2-yl]methyl}-5′-methyl-1-{1-[2-(trifluoromethyl)pyrimidin-5-yl]ethyl}-4′,5′-dihydrospiro[piperidine-4,7′thieno[2,3-C]pyran]-2′-carboxamide] |  | 77.3 | 
CCS(=O)(=O)c1ccc(CNC(=O)c2cc3c(s2)C2(CCN([C@@H](C)c4cnc(C(F)(F)F)nc4)CC2)O[C@@H](C)C3)nc1 [Example 2, (5S′)—N-{[5-(Ethylsulfonyl)pyridine-2-yl]methyl}-5′-methyl-1-{(1S)-1-[2-(trifluoromethyl)pyrimidin-5-yl]ethyl}-4′,5′-dihydrospiro[piperidine-4,7′thieno[2,3-C]pyran]-2′-carboxamide] |  | 33.7 ± 33.1 | 
CCS(=O)(=O)c1ccc(CNC(=O)c2cc3c(s2)C2(CCN([C@H](C)c4cnc(C(F)(F)F)nc4)CC2)O[C@@H](C)C3)nc1 [Example 3, (5S′)—N-{[5-(Ethylsulfonyl)pyridine-2-yl]methyl}-5′-methyl-1-{(1R)-1-[2-(trifluoromethyl)pyrimidin-5-yl]ethyl}-4′,5′-dihydrospiro[piperidine-4,7′thieno[2,3-C]pyran]-2′-carboxamide] |  | 20 ± 12.6 | severity of paw swelling and mean clinical scores ([1]; compared to the vehicle group): reduces severity of paw swelling and maintains lower mean clinical scores; reduction in clinical score AUC ([1]; day 0 to day 21, compared to the vehicle group): 75%; Clinical Score AUC (mean ± SEM) ([1]; day 0 to day 21, n=8/group): 22.20 ± 8.68
